Common to all, as to assay type: biochemical
One assay deals with T1, full-length human PHD1 (Homo sapiens, UniProt Q96KS0).
T1 construct: FLAG (N); purchased Active Motif (Carlsbad, Calif., USA) 81064; host or cells: baculovirus expression system
Description: TR-FRET assay for PHD enzymes, PHD1. The source says:
(§1) The resulting proximity of the donor fluorophore complex, monoclonal antibody anti-6His-Terbium (Tb)-cryptate Gold, bound to the His-tagged VHL protein, EloB, EloC complex (His-VBC) and the acceptor fluorophore, SA-D2 complex, bound to HIF-1α-hydroxyproline results in a fluorescence resonance energy transfer signal that can be detected and quantified
Recombinant human PHD1 protein (catalog #81064, Lot #24717001) was purchased from Active Motif (Carlsbad, Calif., USA). PHD1 was expressed in a baculovirus expression system as the full-length protein (NCBI accession number NP_542770.2) with an N-terminal FLAG tag (molecular weight 44.9 kDa). Purity (>90%) was assessed by SDS-PAGE.
(§2) For this, 5 μL PHD inhibitor compound was serially diluted with dilution buffer (50 mM HEPES [4-(2-hydroxyethyl)-1-piperazineethanesulfonic acid] pH 7.5, 50 mM sodium chloride [NaCl], 0.01% Tween-20, 0.01% purified bovine serum albumin [BSA]) and mixed with 5 μL PHD enzyme mix prepared as a 4× concentrate in the dilution buffer containing PHD enzyme (60 nM PHD1, 20 nM PHD2, 140 nM PHD3), 40 μM ferrous ammonium sulfate (FAS), 4 mM sodium (Na) ascorbate.
(§3) The IC50 values (mean, standard deviation, standard error of the mean, geometric mean and 95% confidence interval) were determined using a four-parameter curve-fit using GraphPad Prism 7.0 (GraphPad, La Jolla, Calif., USA) and represent the compound concentration plotted against the calculated ratio of 665 nm and 615 nm.
In general terms: Time-resolved FRET reads energy transfer from a long-lived donor to a nearby acceptor.

A further assay concerns the target T2, full-length human PHD2 (Homo sapiens, UniProt Q9GZT9).
T2 construct: The PHD2 construct contained amino acids 1 to 426 of PHD2; His tag (N, cleaved yes); TEV protease cleavage site (N, cleaved yes); host or cells: Sf9 insect cells (baculovirus)
The assay is described as follows: TR-FRET assay for PHD enzymes, PHD2. To be noted: read-out: PHD2 IC5 0. As for the experimental part:
as §1, §2, §3

For another assay, the target named is T3, full-length human PHD3 (Homo sapiens, UniProt Q9H6Z9).
T3 construct: 6-His (N); purchased Active Motif (Carlsbad, Calif., USA) 81033; host or cells: E. coli
Description: TR-FRET assay for PHD enzymes, PHD3.
Description: as §1
Recombinant human PHD3 protein (molecular weight 31.1 kDa) was purchased from Active Motif (Carlsbad, Calif., USA). It was expressed in E. coli as the full-length protein (NCBI accession number NP_071356.1) with an N-terminal 6-His tag (catalog #81033, Lot #24417001).
as §2, §3

T1 sequence (Q96KS0 whole entry): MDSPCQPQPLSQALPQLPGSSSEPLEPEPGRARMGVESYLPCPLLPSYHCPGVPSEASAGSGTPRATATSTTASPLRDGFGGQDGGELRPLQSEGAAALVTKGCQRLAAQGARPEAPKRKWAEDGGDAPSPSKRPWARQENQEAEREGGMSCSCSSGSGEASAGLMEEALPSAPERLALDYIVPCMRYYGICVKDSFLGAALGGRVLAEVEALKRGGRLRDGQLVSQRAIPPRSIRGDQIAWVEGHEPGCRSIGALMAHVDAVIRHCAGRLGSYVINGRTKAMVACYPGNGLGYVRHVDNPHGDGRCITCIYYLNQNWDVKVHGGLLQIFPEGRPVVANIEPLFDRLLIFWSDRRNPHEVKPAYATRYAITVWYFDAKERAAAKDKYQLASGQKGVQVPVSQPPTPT
T2 sequence (Q9GZT9 whole entry, the tested form may be a part): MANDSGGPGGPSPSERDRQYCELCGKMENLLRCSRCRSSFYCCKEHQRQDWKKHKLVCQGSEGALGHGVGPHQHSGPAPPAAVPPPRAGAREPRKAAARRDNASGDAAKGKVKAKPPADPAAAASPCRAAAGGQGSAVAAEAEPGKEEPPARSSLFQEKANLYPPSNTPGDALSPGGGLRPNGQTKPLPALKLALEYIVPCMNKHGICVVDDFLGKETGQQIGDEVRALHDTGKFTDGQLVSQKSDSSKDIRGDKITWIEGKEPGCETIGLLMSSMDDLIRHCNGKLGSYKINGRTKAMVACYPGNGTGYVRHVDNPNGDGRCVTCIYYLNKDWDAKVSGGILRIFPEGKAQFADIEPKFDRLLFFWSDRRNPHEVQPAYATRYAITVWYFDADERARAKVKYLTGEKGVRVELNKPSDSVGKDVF
T3 sequence (Q9H6Z9 whole entry): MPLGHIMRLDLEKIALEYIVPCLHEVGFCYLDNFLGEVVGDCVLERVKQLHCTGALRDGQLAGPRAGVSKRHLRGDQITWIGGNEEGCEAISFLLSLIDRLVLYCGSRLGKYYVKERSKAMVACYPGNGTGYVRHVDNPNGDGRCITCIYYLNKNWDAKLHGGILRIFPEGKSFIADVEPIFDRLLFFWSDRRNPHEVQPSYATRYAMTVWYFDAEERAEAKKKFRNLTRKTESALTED

Turning to `Cc1ccc(-c2cnn(-c3ccc(C(=O)OC(C)(C)C)cn3)c2O)cc1` [Compound 1, Tert-butyl 6-(5-hydroxy-4-(p-tolyl)-1H-pyrazol-1-yl)nicotinate], the figures for the IC50 against full-length human PHD1 and at full-length human PHD2 were 100 to 1000 nM and 1000 to 10000 nM, respectively.
`CC(C)(C)OC(=O)c1ccc(-n2ncc(-c3ccc(Br)cc3)c2O)nc1` [Compound 2, Tert-butyl 6-(4-(4-bromophenyl)-5-hydroxy-1H-pyrazol-1-yl)nicotinate]: the IC50 against full-length human PHD1 was 100 to 1000 nM; on full-length human PHD2 it was at least 10000 nM.
On to `O=C(O)c1ccc(-n2ncc(-c3ccc(Br)cc3)c2O)nc1` [Compound 3, 6-(4-(4-Bromophenyl)-5-hydroxy-1H-pyrazol-1-yl) nicotinic acid], for which the IC50 at full-length human PHD1 is under 100 nM; on full-length human PHD2, under 100 nM; on full-length human PHD3 it was 100 to 1000 nM.
With `CC(C)(C)OC(=O)c1ccc(-n2ncc(-c3ccc(Cl)cc3)c2O)nc1` [Compound 4, Tert-butyl 6-(4-(4-chlorophenyl)-5-hydroxy-1H-pyrazol-1-yl)nicotinate], the IC50 fell in the range of 100 to 1000 nM against full-length human PHD1 and 1000 to 10000 nM at full-length human PHD2.
For the compound `O=C(O)c1ccc(-n2ncc(-c3ccc(Cl)cc3)c2O)nc1` [Compound 5, 6-(4-(4-Chlorophenyl)-5-hydroxy-1H-pyrazol-1-yl)nicotinic acid], the results for the IC50 at full-length human PHD1, on full-length human PHD2 and against full-length human PHD3 were under 100 nM, under 100 nM and 100 to 1000 nM, respectively.
For the compound `CC(C)(C)OC(=O)c1ccc(-n2ncc(-c3ccc(F)cc3)c2O)nc1` [Compound 6, Tert-butyl 6-(4-(4-fluorophenyl)-5-hydroxy-1H-pyrazol-1-yl)nicotinate], the IC50 against full-length human PHD1 was under 100 nM; at full-length human PHD2, 1000 to 10000 nM.
Regarding `O=C(O)c1ccc(-n2ncc(-c3ccc(F)cc3)c2O)nc1` [Compound 7, 6-(4-(4-Fluorophenyl)-5-hydroxy-1H-pyrazol-1-yl)nicotinic acid], the IC50 is under 100 nM at full-length human PHD1, under 100 nM at full-length human PHD2 and 1000 to 10000 nM on full-length human PHD3.
With `Cc1cc(C#N)ccc1-c1cnn(-c2ccc(C(=O)OC(C)(C)C)cn2)c1O` [Compound 8, Tert-butyl 6-(4-(4-cyano-2-methylphenyl)-5-hydroxy-1H-pyrazol-1-yl)nicotinate], the IC50 at full-length human PHD1, on full-length human PHD2 and against full-length human PHD3 was under 100 nM in each case.
Regarding `Cc1nn(-c2ccc(C(=O)O)cn2)c(O)c1-c1ccc(C#N)cc1` [Compound 9, 6-(4-(4-Cyanophenyl)-5-hydroxy-3-methyl-1H-pyrazol-1-yl)nicotinic acid], the IC50 against full-length human PHD1, at full-length human PHD2 and at full-length human PHD3 was under 100 nM each time.
For `Cc1nn(-c2ccc(C(=O)OC(C)(C)C)cn2)c(O)c1-c1ccc(C#N)cc1` [Compound 10, Tert-butyl 6-(4-(4-cyanophenyl)-5-hydroxy-3-methyl-1H-pyrazol-1-yl)nicotinate], the IC50 is under 100 nM against full-length human PHD1, under 100 nM at full-length human PHD2 and at least 10000 nM at full-length human PHD3.
In the case of `COC(=O)c1ccc(-n2nc(C)c(-c3ccc(C#N)cc3)c2O)nc1` [Compound 11, Methyl 6-(4-(4-cyanophenyl)-5-hydroxy-3-methyl-1H-pyrazol-1-yl)nicotinate], the IC50 was under 100 nM against full-length human PHD1, under 100 nM on full-length human PHD2 and 100 to 1000 nM against full-length human PHD3.
With `N#Cc1ccc(-c2cnn(-c3ncc(C(=O)O)cc3F)c2O)cc1` [Compound 14, 6-(4-(4-cyanophenyl)-5-hydroxy-1H-pyrazol-1-yl)-5-fluoronicotinic acid], the IC50 on full-length human PHD1 and on full-length human PHD2 was 1000 to 10000 nM each time.
As to `Cc1nn(-c2ccc(C(=O)O)cn2)c(O)c1-c1ccc(Cl)cc1` [Compound 15], the IC50 at full-length human PHD1 and at full-length human PHD2 was under 100 nM each time.
For `Cc1nc(-n2nc(C)c(-c3ccc(C#N)cc3)c2O)ccc1C(=O)O` [Compound 19, 6-(4-(4-cyanophenyl)-5-hydroxy-3-methyl-1H-pyrazol-1-yl)-2-methylnicotinic acid], the IC50 on full-length human PHD1 and on full-length human PHD2 was 1000 to 10000 nM in each case.
In the case of `Cc1nn(-c2ccc(C(=O)O)cn2)c(O)c1-c1ccc(Cl)cn1` [Compound 20, 6-(4-(5-chloropyridin-2-yl)-5-hydroxy-3-methyl-1H-pyrazol-1-yl)nicotinic acid], the IC50 against full-length human PHD1 is under 100 nM; on full-length human PHD2 it was 100 to 1000 nM.
On the same counts, the results for `O=C(O)c1ccc(-n2ncc(-c3ccc(Cl)c(O)c3)c2O)nc1` [Compound 22, 6-(4-(4-chloro-3-hydroxyphenyl)-5-hydroxy-1H-pyrazol-1-yl)nicotinic acid] are under 100 nM and under 100 nM.
The matching figures for `Cc1nn(-c2ccc(C(=O)O)cn2)c(O)c1-c1ccc(C#N)c(F)c1` [Compound 23, 6-(4-(4-cyano-3-fluorophenyl)-5-hydroxy-3-methyl-1H-pyrazol-1-yl)nicotinic acid]: under 100 nM and under 100 nM.
Consider `Cc1nn(-c2ccc(C(=O)O)cn2)c(O)c1-c1ccc(C#N)cc1F` [Compound 25, 6-(4-(4-cyano-2-fluorophenyl)-5-hydroxy-3-methyl-1H-pyrazol-1-yl)nicotinic acid], for which the IC50 at full-length human PHD1 and on full-length human PHD2 was under 100 nM throughout.
For `Cc1nn(-c2cc(N)c(C(=O)O)cn2)c(O)c1-c1ccc(C#N)cc1` [Compound 27, 4-amino-6-(4-(4-cyanophenyl)-5-hydroxy-3-methyl-1H-pyrazol-1-yl)nicotinic acid], the IC50 on full-length human PHD1 and on full-length human PHD2 was under 100 nM throughout.
Regarding `Cc1cc(-c2c(C)nn(-c3ccc(C(=O)O)cn3)c2O)ccc1C#N` [Compound 29, 6-(4-(4-cyano-3-methylphenyl)-5-hydroxy-3-methyl-1H-pyrazol-1-yl)nicotinic acid], the IC50 against full-length human PHD1 and on full-length human PHD2 was under 100 nM in each case.
For `N#Cc1ccc(-c2cnn(-c3ccc(C(=O)O)cn3)c2O)c(Cl)c1` [Compound 30, 6-(4-(2-chloro-4-cyanophenyl)-5-hydroxy-1H-pyrazol-1-yl)nicotinic acid], the IC50 against full-length human PHD1 and at full-length human PHD2 was under 100 nM throughout.
Take `Cc1cc(C#N)cc(C)c1-c1cnn(-c2ccc(C(=O)O)cn2)c1O` [Compound 31, 6-(4-(4-cyano-2,6-dimethylphenyl)-5-hydroxy-1H-pyrazol-1-yl)nicotinic acid]: the IC50 was under 100 nM against full-length human PHD1 and 100 to 1000 nM on full-length human PHD2.
On the same counts, the results for `COc1ccc(-c2c(C)nn(-c3ccc(C(=O)O)cn3)c2O)cc1C` [Compound 32, 6-(5-hydroxy-4-(4-methoxy-3-methylphenyl)-3-methyl-1H-pyrazol-1-yl)nicotinic acid] are 100 to 1000 nM and 100 to 1000 nM.
The matching figures for `CCc1cc(C#N)ccc1-c1cnn(-c2ccc(C(=O)O)cn2)c1O` [Compound 33, 6-(4-(4-cyano-2-ethylphenyl)-5-hydroxy-1H-pyrazol-1-yl)nicotinic acid]: under 100 nM and under 100 nM.
On the same counts, the results for `Cc1nn(-c2cnc(C(=O)O)cn2)c(O)c1-c1ccc(C#N)cc1` [Compound 34, 5-(4-(4-cyanophenyl)-5-hydroxy-3-methyl-1H-pyrazol-1-yl)pyrazine-2-carboxylic acid] are under 100 nM and under 100 nM.
For `N#Cc1ccc(-c2cnn(-c3ccc(C(=O)O)cn3)c2O)c(C(F)(F)F)c1` [Compound 40, 6-(4-(4-cyano-2-(trifluoromethyl)phenyl)-5-hydroxy-1H-pyrazol-1-yl)nicotinic acid], the IC50 against full-length human PHD1 and at full-length human PHD2 was under 100 nM throughout.
In the case of `Cc1nn(-c2ccc(C(=O)O)cn2)c(O)c1-c1cc[n+]([O-])cc1` [Compound 41, 4-(1-(5-carboxypyridin-2-yl)-5-hydroxy-3-methyl-1H-pyrazol-4-yl)pyridine 1-oxide], the IC50 against full-length human PHD1 and at full-length human PHD2 was at least 10000 nM in each case.
For the compound `Cc1nn(-c2ccc(C(=O)O)cn2)c(O)c1-c1ccc(Cl)c(C#N)c1` [Compound 42, 6-(4-(4-chloro-3-cyanophenyl)-5-hydroxy-3-methyl-1H-pyrazol-1-yl)nicotinic acid], the IC50 at full-length human PHD1 and at full-length human PHD2 was under 100 nM in each case.
As to `COc1ccc(-c2cnn(-c3ccc(C(=O)O)cn3)c2O)cn1` [Compound 43, 6-(5-Hydroxy-4-(6-methoxypyridin-3-yl)-1H-pyrazol-1-yl)nicotinic acid], the IC50 against full-length human PHD1 and on full-length human PHD2 was under 100 nM in each case.
For the compound `Cc1nn(-c2ccc(C(=O)O)cn2)c(O)c1-c1ccc(C#N)c(Cl)c1` [Compound 44, 6-(4-(3-chloro-4-cyanophenyl)-5-hydroxy-3-methyl-1H-pyrazol-1-yl)nicotinic acid], the IC50 against full-length human PHD1 and on full-length human PHD2 was under 100 nM throughout.
